The text below walks through data of US11286256B2, “Bicyclic inhibitors of histone deacetylase” (Alkermes, Inc., priority 2017, dated 2022).

Data set [1] concerns the target T1, CYP2D6 (Homo sapiens, UniProt P10635).
T1 construct: Human liver microsomes were obtained from BD Gentest; tissue BD Gentest; host or cells: human liver microsomes
Kind of data set: CYP inhibition assay in human liver microsomes (2D6). The format is in vitro ADME. The conditions noted are these: for inhibition at 10 min, 10 µM: human liver microsomes; for inhibition of CYP2D6 (in words): 10 μM. The procedure:
Compounds were tested to evaluate their inhibitory potential on CYP2D6 and CYP3A4 (midazolam) using human liver microsomes. Human liver microsomes were obtained from BD Gentest, and each compound was run in duplicate.
The test compounds and reference inhibitors (quinidine for 2D6, ketoconazole for 3A4) were plated in a 96-well plate by transferring 8 μL of 10 mM stock solutions of compound in DMSO to 12 μL of acetonitrile. Individual inhibitor spiking solutions were prepared for CYP2D6 and CYP3A4 (8 μL of DMSO stock added to 12 μL of acetonitrile). Next added 400 μL of 0.2 mg/mL HLM to the assay wells and then added 2 μL of 400× test compound into the designated wells on ice. Next, added 200 μL of 0.2 mg/mL HLM to the assay wells and then added 1 μL of reference inhibitor solutions into the designated wells. The following solutions were added (in duplicate) to a 96-well assay plate on ice: The test compounds and reference inhibitors (quinidine for 2D6, ketoconazole for 3A4) were tested using the following experimental procedure:
10. Incubate the assay plate at 37° C. 5 min for 3A4, 10 min for 2D6.
11. Stop the reaction by adding 120 μL of ACN containing Internal Standard. For CYP3A4, the internal standard is 1′OH-midazolam-D4 (10 μM solution diluted to a final concentration of 0.1 μM by adding 100 μL internal standard stock to 10 mL ACN). For CYP2D6, the internal standard is 1-OH-Bufuralol-maleate-[D9] (49 μM solution diluted to a final concentration of 0.1 μM by adding 20 μL internal standard stock to 10 mL ACN).
The assessment on CYP isoform inhibition is as follows based on the assay results: if percentage of CYP inhibition is higher than 50%, indicates potent inhibition; if percentage of CYP inhibition is between 30-50%, indicates […]; if percentage of CYP inhibition is less than 30%, indicates slight or no inhibition. If the percentage of CYP inhibition is less than −30%, this indicates the compound may have some kind of activation of this isoform.
In general terms: Microsomes from liver hold many membrane-bound enzymes, among them those of drug oxidation.

The target of data set [2] is HDAC2 (Homo sapiens, UniProt Q92769). Kind of data set: HDAC2 enzymatic inhibition assay in SY5Y cell lysate with HDAC-Glo2 substrate. The format is cell-based. Also on record: host or cells: SH-SY5Y. The conditions noted are these: SH-SY5Y cells, 5 h compound incubation, HDAC-Glo 2 reagent. The method, then: HDAC2 Enzymatic Inhibition Assay in SY5Y Cell Lysate with HDAC-Glo2 Substrate
SH-SY5Y cells (Sigma) were cultured in Eagle's Modified Essential Medium supplemented with 10% fetal bovine serum and pen/strep. Twenty-four hours prior to compound dosing 20 uL of cells were plated in white 384 well plates at a density of 1,500 cells/well. Compounds were serially diluted in neat DMSO and then diluted 1:100 v/v into media without FBS and mixed. Media was removed from the plated cells and the diluted compounds in serum free media (1% v/v final DMSO) were added and incubated at 37.0 for five hours. Ten uL of HDAC-Glo 2 reagent with 0.1% Triton X-100 was then added, the plate was mixed and allowed to develop at room temperature for 100 minutes. Plates were then read with a Spectramax LMax luminometer employing a 0.4 s integration time. Dose response curves were constructed with normalized data where CI-994 at 100 uM was defined as 100% inhibition and DMSO alone as 0% inhibition.

The test system of data set [3] is human erythroid progenitors (CFU-E, BFU-E). Kind of data set: Erythroid CFU assay in human bone marrow cells. Format: cell-based. The conditions noted are these: 10 μM, 14 days culture, human bone marrow cells. The procedure:
Compounds were tested to evaluate the potential effects on human erythroid and myeloid progenitors using colony forming cell assays. Clonogenic progenitors of human erythroid (CFU-E, BFU-E), granulocyte-monocyte (CFU-GM) and multipotential (CFU-GEMM) lineages were assessed in a semi-solid methylcellulose-based media formulation containing rhlL-3 (10 ng/mL), rhGM-SCF (10 ng/mL), rhSCF (50 ng/mL) and Epo (3 U/mL).
Normal human bone marrow light density cells derived from normal bone marrow (NorCal Biologics, California) and qualified at ReachBio, were stored in the gaseous phase of liquid nitrogen (−152° C.) until required for the assay. On the day of the experiment, the cells were thawed rapidly, the contents of each vial was diluted in 10 mL of Iscove's modified Dulbecco's medium containing 10% fetal bovine serum (IMDM+10% FBS) and washed by centrifugation (approximately 1200 r.p.m. for 10 minutes, room temperature). The supernatant was discarded and the cell pellets resuspended in a known volume of IMDM+10% FBS. A cell count (3% glacial acetic acid) and viability assessment (trypan blue exclusion test) was performed for the bone marrow sample.
On the day of the experiment, the compounds were dissolved in DMSO to a stock concentration of 10 mM. Serial dilutions were prepared from the stock concentration to achieve concentrations of 2 and 0.4 mM. When added to the methylcellulose-based media at 1:1000 (v/v), the final test concentrations of 10, 2 and 0.4 μM were achieved. Additionally, 5-FU was evaluated at 1.0, 0.1 and 0.01 μg/mL.
Clonogenic progenitors of the human erythroid (CFU-E and BFU-E) and myeloid (CFU-GM) lineages were set up in the methylcellulose-based media formulations described above. All compounds were added to the medium to give the final desired concentrations (10, 2 and 0.4 μM). 5-Fluorouracil (Sigma Aldrich) was used as a positive control for progenitor proliferation (inhibition of colony growth) and was introduced to the human bone marrow cultures at 1.0, 0.1, and 0.01 μg/mL. Solvent control cultures (containing no compound but 0.1% DMSO) as well as standard controls (containing no compound and no DMSO) were also initiated.
Human myeloid and erythroid progenitor assays were initiated at 2.0×10^4 cells per culture. Following 14 days in culture, myeloid and erythroid colonies were assessed microscopically and scored by trained personnel. The colonies were divided into the following categories based on size and morphology: CFU-E, BFU-E, CFU-GM and CFU-GEMM.
The mean±one standard deviation of three replicate cultures was calculated for progenitors of each category (CFU-E, BFU-E, etc.). Two-tailed t-tests were performed to assess if there was a difference in the number of colonies generated between solvent control and treated cultures. Due to the potential subjectivity of colony enumeration, a p value of less than 0.01 is deemed significant. To calculate the concentration of 50% inhibition of colony growth (IC50) for each compound, a dose response curve was generated plotting the log of the compound concentration versus the percentage of control colony growth using XLfit software (IDBS). The concentration of 50% inhibition of colony growth (IC50) was calculated based on the sigmoid curve fit using Dose-Response, One-Site Model formula: y=A+[(B−A)/(1+((C/x)^D))], where A=the initial value (baseline response), B=maximum response, C=center (drug concentration that provokes a response halfway between A and B) and D=slope of the curve at midpoint. Further, plots and additional dose response curves were generated using GraphPad Prism 7.0.
Erythroid (CFU-E and BFU-E), myeloid (CFU-GM) and multi-potential (CFU-GEMM) colony enumeration was performed by trained personnel. The distribution of colony types as well as general colony and cellular morphology was analyzed. For statistical analysis colony numbers in compound treated cultures were compared to the solvent control cultures. […]

T1 sequence (P10635 whole entry): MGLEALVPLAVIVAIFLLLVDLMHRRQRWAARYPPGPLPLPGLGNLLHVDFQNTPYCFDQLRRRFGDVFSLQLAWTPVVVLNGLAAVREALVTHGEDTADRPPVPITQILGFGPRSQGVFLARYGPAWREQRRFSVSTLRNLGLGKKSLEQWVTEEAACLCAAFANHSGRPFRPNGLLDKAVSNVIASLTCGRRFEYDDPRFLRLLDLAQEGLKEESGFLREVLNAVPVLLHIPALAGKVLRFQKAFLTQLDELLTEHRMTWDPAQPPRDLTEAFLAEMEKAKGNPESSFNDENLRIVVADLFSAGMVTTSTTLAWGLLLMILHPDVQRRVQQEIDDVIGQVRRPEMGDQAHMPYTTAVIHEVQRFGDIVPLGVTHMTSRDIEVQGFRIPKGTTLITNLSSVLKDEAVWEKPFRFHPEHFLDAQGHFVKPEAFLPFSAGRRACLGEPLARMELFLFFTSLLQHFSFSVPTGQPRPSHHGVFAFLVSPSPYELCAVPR
Sequence of HDAC2 (Q92769 whole entry): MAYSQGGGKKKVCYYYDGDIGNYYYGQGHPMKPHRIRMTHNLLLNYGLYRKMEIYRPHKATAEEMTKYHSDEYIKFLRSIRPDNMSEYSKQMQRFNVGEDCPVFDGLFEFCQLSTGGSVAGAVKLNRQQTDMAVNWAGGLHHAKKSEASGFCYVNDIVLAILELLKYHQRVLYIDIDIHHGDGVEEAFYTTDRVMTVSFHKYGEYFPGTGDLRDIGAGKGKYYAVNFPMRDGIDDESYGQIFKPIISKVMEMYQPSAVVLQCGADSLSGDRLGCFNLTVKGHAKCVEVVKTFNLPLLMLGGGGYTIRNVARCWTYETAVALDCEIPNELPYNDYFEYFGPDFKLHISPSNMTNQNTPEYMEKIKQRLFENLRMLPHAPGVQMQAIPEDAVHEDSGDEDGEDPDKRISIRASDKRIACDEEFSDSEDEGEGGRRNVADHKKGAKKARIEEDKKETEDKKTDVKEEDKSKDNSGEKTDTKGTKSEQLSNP

Take `Nc1ccc(-c2ccc(F)cc2)cc1NC(=O)N1Cc2nccnc2C1` [Comparator A]: the inhibition (usually the relative decrease from the control value, in per cent) at 10 min, 10 µM in data set [1] is 34%. The half-inhibitory concentration (IC50) – broadly, the concentration needed to halve the response being measured – in data set [2] was found to be 369 nM. The “CFU % Control remaining @ 10 μM Erythroid” value in data set [3] is 0%.

On to `Nc1ccc(-c2ccc(F)cc2)nc1NC(=O)N1Cc2nccnc2C1` [Comparator B], for which the inhibition at 10 min, 10 µM in data set [1] was found to be 9%. In addition, the midpoint of inhibition in data set [2], the IC50, lay at 485 nM. In addition, the “CFU % Control remaining @ 10 μM Erythroid” value in data set [3] was 9%.

Take `Nc1ccc(-c2cccs2)nc1NC(=O)N1Cc2nccnc2C1` [Comparator C]: in data set [1], the inhibition at 10 min, 10 µM amounted to 0.2%. The concentration for half-maximal inhibition (IC50) in data set [2] stood at 279 nM. In addition, in data set [3], the “CFU % Control remaining @ 10 μM Erythroid” value came out at 20%.

`Nc1ccc(-c2ccc(F)cc2)nc1NC(=O)N1Cc2cncnc2C1` [Comparator D]: in data set [1], the “inhibition of CYP2D6 (in words)” value was “significant inhibition” and the inhibition at 10 min, 10 µM stood at 85%. For the same compound, the IC50 in data set [2] came out at 331 nM. The “CFU % Control remaining @ 10 μM Erythroid” value in data set [3] amounted to 47%.

With `Nc1ccc(-c2cccs2)nc1NC(=O)N1Cc2cncnc2C1` [Comparator E], in data set [1], the “inhibition of CYP2D6 (in words)” value was “significant inhibition” and the inhibition at 10 min, 10 µM was determined as 50%. Besides, 278 nM corresponded to half-maximal inhibition in data set [2] (IC50). Besides, the “CFU % Control remaining @ 10 μM Erythroid” value in data set [3] is on record as 54%.

In the case of `COCc1cc2c(cn1)CN(C(=O)Nc1nc(-c3ccc(F)cc3F)ccc1N)C2` [Compound 1], the inhibition at 10 min, 10 µM in data set [1] was -1%. Also, in data set [2], half-maximal inhibition (IC50) required 777 nM. The “CFU % Control remaining @ 10 μM Erythroid” value in data set [3] is 57%.

`Cc1ncc2c(n1)CN(C(=O)Nc1nc(-c3cccs3)ccc1N)C2` [Compound 2]: in data set [1], the “inhibition of CYP2D6 (in words)” value is recorded as “no significant inhibition” and the inhibition at 10 min, 10 µM is -5%. For the same compound, the IC50 in data set [2] was 577 nM. For the same compound, the “CFU % Control remaining @ 10 μM Erythroid” value in data set [3] amounted to 27%.
